“And” between values parts separate entries of the source, which are not always exact repeats. Equal values may be shown once.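 These data come from cells grown in 96-well plates and exposed to compound for 48 hours at five concentrations. GI50 = concentration required for 50% inhibition of growth. At the TGI there is no net growth.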
Columns and labels:
Assay in all cases: NCI anticancer screen, dose series, 48 h
[1] = test system: SK-MEL-2 melanoma
[2] = test system: CAKI-1 renal
[3] = test system: DMS 114 small cell lung
[4] = test system: OVCAR-8 ovarian
[5] = test system: DLD-1 colon
[6] = test system: K-562 leukemia
[7] = test system: M14 melanoma
[8] = test system: HOP-92 NSCLC
[9] = test system: NCI-H522 lung
[10] = test system: NCI/ADR-RES ovarian

Row | SMILES | TGI [1] [µM] | TGI [2] [µM] | TGI [3] [µM] | TGI [4] | TGI [5] [µM] | TGI [6] [µM] | TGI [7] [µM] | TGI [8] [µM] | TGI [9] [µM] | TGI [10] [µM] | GI50 [3] | GI50 [4] [µM] | GI50 [5] [µM] | GI50 [6] | GI50 [7] [µM] | GI50 [1] [µM] | GI50 [2] [µM] | GI50 [10] [µM] | GI50 [8] | GI50 [9] [µM]
1 | CN(C)c1n/c(=N/c2ncn[nH]2)ss1 | > 100 | > 100 | > 100 | > 100 µM | > 100 | > 100 | > 100 | > 100 | > 100 |  |  |  |  |  |  |  |  |  |  | 
2 | O=C(NNC(=O)c1cc(/C=C/c2cccc([N+](=O)[O-])c2)[nH]c(=S)n1)Nc1ccc(Cl)cc1 | > 100 |  | 97.4 | > 100 µM | 47.8 | > 100 | > 100 |  | 81.8 |  |  |  |  |  |  |  |  |  |  | 
3 | COC(OC)[C@@H](C)[C@H](O)[C@](C)(O)C1OC(C)(C)OC(C(C)C=C(C)C)C1C (stereo partly specified) | > 100 | > 100 | > 100 | > 100 µM | > 100 | > 100 | > 100 | > 100 | > 100 |  |  |  |  |  |  |  |  |  |  | 
4 | O=C(NO)C(=O)Nc1ccc(Cl)cc1[N+](=O)[O-] | > 100 | > 100 | > 100 | > 100 µM | > 100 | > 100 | > 100 | > 100 | > 100 |  |  |  |  |  |  |  |  |  |  | 
5 | O=C(NCCCCCCCCNC(=O)c1cccc2ccccc12)c1cccc2ccccc12 | > 100 | 52.8 | > 100 | 79.5 µM | > 100 | > 100 | > 87 | 20.4 | > 46.4 | > 100 |  |  |  |  |  |  |  |  |  | 
6 | COc1ccc(/C(=N/NC(N)=O)C(c2ccc(OC)cc2)C2C(=O)Oc3ccccc32)cc1 (stereo unspecified) |  | > 100 | > 100 | > 100 µM | > 100 | > 100 | > 100 | > 100 | > 100 |  |  |  |  |  |  |  |  |  |  | 
7 | O=C1/C(=C/c2ccccc2)CN(C(=O)OCc2ccccc2)C/C1=C\c1ccccc1 | 44.8 | > 31.6 | 21 | 9.39 µM and 20.3 µM | 14.2 | 15.4 | 16.7 | > 100 | 18.5 |  | 4.26 µM | 3.05 | 4.14 | 1.63 µM | 5.89 |  |  |  |  | 
8 | COc1cc(-c2cc(=O)c3cc(C)c(C)c(C(=O)O)c3o2)cc(OC)c1OC | > 100 |  | > 100 | > 100 µM | > 100 | > 100 | > 100 | > 100 | > 100 |  |  |  |  |  |  |  |  |  |  | 
9 | O=C(O)Cn1c(=O)[nH]c(=O)c2c1ncn2Cc1ccccc1 | > 100 | > 100 | > 100 | > 100 µM | > 100 | > 100 | > 100 | > 100 | > 100 |  |  |  |  |  |  |  |  |  |  | 
10 | Cc1ccc(C)c(NC(=O)CCc2nc(=S)[nH][nH]2)c1 | > 100 | > 100 | > 100 | > 100 µM | > 100 | > 100 | > 100 | > 100 | > 100 |  |  |  |  |  |  |  |  |  |  | 
11 | O=C(CC(=O)C1CCOC1=O)C(=O)Nc1ccc(Cl)cc1Cl (stereo unspecified) | > 100 | > 100 | > 100 | > 100 µM | > 100 | > 100 | > 100 | > 100 | > 100 |  |  |  |  |  |  |  |  |  |  | 
12 | COc1ccc(CNc2nc3c(NC(C)=O)cc(C(F)(F)F)cc3nc2-c2ccccc2)cc1OC | > 100 | > 100 | > 100 | > 100 µM | > 100 | > 100 | > 100 |  | 23.5 |  |  |  |  |  |  |  |  |  |  | 
13 | Cc1ccc2[nH]c3c(ncc4[nH]c5ccccc5c43)c2c1 | 33.6 | 31.6 | 31.3 | 35.9 µM | 31 | 30.2 | 35.8 |  | 39.6 |  |  |  |  |  |  |  |  |  |  | 
14 | OC(c1ccccn1)C1CNc2ccccc21 (stereo unspecified) | > 100 | > 100 | > 100 | > 100 µM | > 100 | > 100 | > 100 | > 100 | > 100 |  |  |  |  |  |  |  |  |  |  | 
15 | Nc1nc(N)c2nc(CNc3ccc(C(=O)NC(CCCNC(=O)c4ccccc4C(=O)O)C(=O)O)cc3)cnc2n1 (stereo unspecified) | > 100 | > 100 | > 100 | > 100 µM | > 100 | > 100 | > 100 |  | > 100 | > 100 | < 0.01 µM and 0.000327 µM | 0.0015 |  | < 0.0242 µM and 0.000381 µM | 0.0226 | > 100 | 0.00224 | 0.00273 | < 0.01 µM and 0.0274 µM | 0.016
16 | CCC[CH2][Sn]([CH2]CCC)([O]C(=O)C1CCC(=O)N1)[O]C(=O)C1CCC(=O)N1 (stereo unspecified) | 0.367 | 0.356 | 0.367 | 1.01 µM | 1.52 | 0.565 | 0.456 | 0.575 | 0.11 |  | 0.168 µM | 0.319 | 0.353 | 0.138 µM | 0.2 | 0.181 | 0.0757 |  | 0.141 µM | 0.0263
17 | Cn1c2c(c3ccccc31)CCN(CCCCN1CCN(c3cccc(Cl)c3)CC1)C2=O | 31.1 | > 100 | 10.7 | 48 µM | 25.1 | 27.6 | 10.7 | 34.7 | 25.6 |  |  |  |  |  |  |  |  |  |  | 
